Assay: Stability: hourly moisture content (moisture absorption from the air)
Type: physicochemical
Source text: As a result, the moisture content increased, as the time went by. […] The elementary analysis data for the aforementioned hydrates is illustrated in the following Table 2.

In the case of `CCCCc1nc(C)c(CC(=S)N(C)C)c(=O)n1Cc1ccc(-c2ccccc2-c2nnn[nH]2)cc1` [Example 3, 2-n-butyl-5-dimethylaminothiocarbonylmethyl-6-methyl-3-[[2′-(1 H-tetrazol-5-yl)biphenyl-4-yl]methyl]-pyrimidin-4(3H)-one], the moisture content (60% RH, Time 1 hour) was 6.2%, the moisture content (60% RH, Time 2 hour) was 9.1% and the moisture content (60% RH, Time 3 hour) was 9.15%. It also gave a moisture content (60% RH, Time 4 hour) of 9.1%, a moisture content (60% RH, Time 5 hour) of 9.2% and a moisture content (60% RH, Time 6 hour) of 9.1%. For the same compound, the moisture content (75% RH, Time 1 hour) was 9.05%, the moisture content (75% RH, Time 2 hour) was 9.1% and the moisture content (75% RH, Time 3 hour) was 9.1%. For the same compound, the moisture content (75% RH, Time 4 hour) was 9.15%, the moisture content (75% RH, Time 5 hour) was 9.2% and the moisture content (75% RH, Time 6 hour) was 9.1%. The moisture content (Room temperature & Room humidity, Time 1 hour) was 3.4%, the moisture content (Room temperature & Room humidity, Time 2 hour) was 5.6% and the moisture content (Room temperature & Room humidity, Time 3 hour) was 9.1%. The moisture content (Room temperature & Room humidity, Time 4 hour) was 9.2%, the moisture content (Room temperature & Room humidity, Time 5 hour) was 9.1% and the moisture content (Room temperature & Room humidity, Time 6 hour) was 9.1%.
